Measurements taken from PubChem BioAssay AID248 (DTP/NCI, 2004).
Where “and” joins values, the source holds several entries; their conditions need not be identical. Equal entries are not always repeated. Inconclusive results and toxic doses are left out.

Test system: L1210 leukemia ip in BDF1 mice, survival T/C
Test: NCI In Vivo Anticancer Drug Screen. Data for tumor model L1210 Leukemia (intraperitoneal) in B6D2F1 (BDF1) mice
Settings: endpoint: mean survival time, higher = longer survival
Summary of the method: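 Value reflects the ratio of survival in compound-treated mice to survival in vehicle-treated controls, with both groups carrying the same transplanted tumor.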

[1] = dose: 100.0 mg/kg/injection, schedule: Q01DX009 (ip), vehicle: Klucel (hydroxypropylcellulose) (HPC)

In the case of `O=C(Nc1ccc(C2=NCCN2)cc1)c1cccc(C(=O)Nc2ccc(C3=NCCN3)cc2)c1`, the T/C (dose: 1.0 mg/kg/injection, schedule: Q#A X Z (ip), vehicle: methylcellulose (MC)) is reported as 114 % of control, the T/C (dose: 1.4 mg/kg/injection, schedule: Q01DX Z (ip), vehicle: methylcellulose (MC)) is reported as 104 % of control and the T/C (dose: 1.88 mg/kg/injection, schedule: Q01DX Z (ip), vehicle: saline) is reported as 113 % of control. For the same compound, the T/C (dose: 2.0 mg/kg/injection, schedule: Q01DX Z (ip), vehicle: methylcellulose (MC)) was 117 % of control, the T/C (dose: 2.5 mg/kg/injection, schedule: Q01DX Z (iv), vehicle: other) was 94 % of control and 100 % of control and the T/C (dose: 4.0 mg/kg/injection, schedule: Q#A X Z (ip), vehicle: methylcellulose (MC)) was 158 % of control. The T/C (dose: 5.0 mg/kg/injection, schedule: Q01DX Z (iv), vehicle: other) was 94 % of control, the T/C (dose: 6.0 mg/kg/injection, schedule: Q03DX Z (ip), vehicle: methylcellulose (MC)) was 109 % of control and the T/C (dose: 6.6 mg/kg/injection, schedule: Q01DX015 (ip), vehicle: carboxymethylcellulose (CMC)) was 236 % of control. The T/C (dose: 7.5 mg/kg/injection, schedule: Q01DX009 (ip), vehicle: saline) was 171 % of control, the T/C (dose: 7.5 mg/kg/injection, schedule: Q01DX Z (ip), vehicle: methylcellulose (MC)) was 168 % of control and the T/C (dose: 8.0 mg/kg/injection, schedule: Q01DX004 (im), vehicle: olive oil, sesame oil, peanut oil) was 97 % of control. The T/C (dose: 8.0 mg/kg/injection, schedule: Q01DX Z (ip), vehicle: methylcellulose (MC)) was 164 % of control, the T/C (dose: 8.0 mg/kg/injection, schedule: Q#A X Z (ip), vehicle: methylcellulose (MC)) was 273 % of control and the T/C (dose: 9.9 mg/kg/injection, schedule: Q01DX015 (ip), vehicle: carboxymethylcellulose (CMC)) was 261 % of control. The T/C (dose: 10.0 mg/kg/injection, schedule: Q01DX Z (iv), vehicle: other) was 97 % of control and 100 % of control, the T/C (dose: 15.0 mg/kg/injection, schedule: Q01DX009 (ip), vehicle: saline) was 173 % of control and 206 % of control and the T/C (dose: 15.0 mg/kg/injection, schedule: Q01DX015 (ip), vehicle: carboxymethylcellulose (CMC)) was 309 % of control. The T/C (dose: 15.0 mg/kg/injection, schedule: Q01DX Z (ip), vehicle: carboxymethylcellulose (CMC)) was 212 % of control, the T/C (dose: 15.0 mg/kg/injection, schedule: Q01DX Z (ip), vehicle: methylcellulose (MC)) was 255 % of control and 369 % of control and the T/C (dose: 15.0 mg/kg/injection, schedule: Q01DX Z (ip), vehicle: saline) was 214 % of control and 264 % of control. For the same compound, the T/C (dose: 16.0 mg/kg/injection, schedule: Q01DX004 (im), vehicle: olive oil, sesame oil, peanut oil) was 100 % of control, the T/C (dose: 16.0 mg/kg/injection, schedule: Q01DX010 (ip), vehicle: saline) was 169 % of control and the T/C (dose: 16.0 mg/kg/injection, schedule: Q01DX Z (ip), vehicle: methylcellulose (MC)) was 331 % of control. The T/C (dose: 16.0 mg/kg/injection, schedule: Q#A X Z (ip), vehicle: methylcellulose (MC)) was 350 % of control, the T/C (dose: 22.5 mg/kg/injection, schedule: Q01DX015 (ip), vehicle: carboxymethylcellulose (CMC)) was 341 % of control and the T/C (dose: 24.0 mg/kg/injection, schedule: Q03DX Z (ip), vehicle: methylcellulose (MC)) was 167 % of control. The T/C (dose: 30.0 mg/kg/injection, schedule: Q01DX009 (ip), vehicle: saline) was 184 % of control and 240 % of control, the T/C (dose: 30.0 mg/kg/injection, schedule: Q01DX Z (ip), vehicle: carboxymethylcellulose (CMC)) was 367 % of control and the T/C (dose: 30.0 mg/kg/injection, schedule: Q01DX Z (ip), vehicle: methylcellulose (MC)) was 119 % of control and 329 % of control. The T/C (dose: 30.0 mg/kg/injection, schedule: Q01DX Z (ip), vehicle: saline) was 329 % of control, the T/C (dose: 32.0 mg/kg/injection, schedule: Q01DX004 (im), vehicle: olive oil, sesame oil, peanut oil) was 97 % of control and the T/C (dose: 32.0 mg/kg/injection, schedule: Q01DX010 (ip), vehicle: saline) was 241 % of control. The T/C (dose: 32.0 mg/kg/injection, schedule: Q01DX Z (ip), vehicle: methylcellulose (MC)) was 347 % of control, the T/C (dose: 32.0 mg/kg/injection, schedule: Q01DX Z (sc), vehicle: methylcellulose (MC)) was 205 % of control and the T/C (dose: 32.0 mg/kg/injection, schedule: Q#A X Z (ip), vehicle: methylcellulose (MC)) was 193 % of control. For the same compound, the T/C (dose: 33.75 mg/kg/injection, schedule: Q01DX015 (ip), vehicle: carboxymethylcellulose (CMC)) was 316 % of control, the T/C (dose: 48.0 mg/kg/injection, schedule: Q03DX Z (ip), vehicle: methylcellulose (MC)) was 267 % of control and the T/C (dose: 56.0 mg/kg/injection, schedule: Q07DX Z (ip), vehicle: methylcellulose (MC)) was 166 % of control. The T/C (dose: 60.0 mg/kg/injection, schedule: Q01DX009 (ip), vehicle: saline) was 194 % of control and 228 % of control, the T/C (dose: 60.0 mg/kg/injection, schedule: Q01DX Z (ip), vehicle: carboxymethylcellulose (CMC)) was 255 % of control and the T/C (dose: 60.0 mg/kg/injection, schedule: Q01DX Z (ip), vehicle: methylcellulose (MC)) was 106 % of control. The T/C (dose: 60.0 mg/kg/injection, schedule: Q01DX Z (ip), vehicle: saline) was 280 % of control, the T/C (dose: 60.0 mg/kg/injection, schedule: Q01DX Z (oral), vehicle: methylcellulose (MC)) was 114 % of control and the T/C (dose: 64.0 mg/kg/injection, schedule: Q01DX004 (im), vehicle: olive oil, sesame oil, peanut oil) was 114 % of control. For the same compound, the T/C (dose: 64.0 mg/kg/injection, schedule: Q01DX010 (ip), vehicle: saline) was 276 % of control, the T/C (dose: 64.0 mg/kg/injection, schedule: Q01DX Z (sc), vehicle: methylcellulose (MC)) was 317 % of control and the T/C (dose: 96.0 mg/kg/injection, schedule: Q03DX Z (ip), vehicle: methylcellulose (MC)) was 352 % of control. The T/C (dose: 100.0 mg/kg/injection, schedule: Q01DX001 (ip), vehicle: water) was 156 % of control, the T/C (dose: 112.0 mg/kg/injection, schedule: Q07DX Z (ip), vehicle: methylcellulose (MC)) was 243 % of control and the T/C (dose: 120.0 mg/kg/injection, schedule: Q01DX009 (ip), vehicle: saline) was 334 % of control. The T/C (dose: 120.0 mg/kg/injection, schedule: Q01DX Z (ip), vehicle: methylcellulose (MC)) was 89 % of control, the T/C (dose: 120.0 mg/kg/injection, schedule: Q01DX Z (ip), vehicle: saline) was 211 % of control and the T/C (dose: 120.0 mg/kg/injection, schedule: Q01DX Z (oral), vehicle: methylcellulose (MC)) was 91 % of control. The T/C (dose: 128.0 mg/kg/injection, schedule: Q01DX Z (sc), vehicle: methylcellulose (MC)) was 338 % of control, the T/C (dose: 192.0 mg/kg/injection, schedule: Q03DX Z (ip), vehicle: methylcellulose (MC)) was 189 % of control and the T/C (dose: 200.0 mg/kg/injection, schedule: Q01DX001 (ip), vehicle: water) was 194 % of control. For the same compound, the T/C (dose: 240.0 mg/kg/injection, schedule: Q01DX Z (oral), vehicle: methylcellulose (MC)) was 97 % of control, the T/C (dose: 256.0 mg/kg/injection, schedule: Q01DX Z (sc), vehicle: methylcellulose (MC)) was 341 % of control and the T/C (dose: 300.0 mg/kg/injection, schedule: Q01DX001 (ip), vehicle: water) was 247 % of control. The T/C (dose: 480.0 mg/kg/injection, schedule: Q01DX Z (oral), vehicle: methylcellulose (MC)) was 89 % of control.
`C=CC(=O)NCCN(C)C` was tested, and the T/C (dose: 75.0 mg/kg/injection, schedule: Q01DX001 (ip), vehicle: saline) was 104 % of control, the T/C (dose: 150.0 mg/kg/injection, schedule: Q01DX001 (ip), vehicle: saline) was 93 % of control and the T/C (dose: 300.0 mg/kg/injection, schedule: Q01DX001 (ip), vehicle: saline) was 104 % of control.
In the case of `Cc1cc(Cl)ccc1NC(=O)c1ccccc1C(=O)O`, the T/C [1] is reported as 96 % of control, the T/C (dose: 100.0 mg/kg/injection, schedule: Q04DX003 (ip), vehicle: Klucel (hydroxypropylcellulose) (HPC)) is reported as 98 % of control and the T/C (dose: 200.0 mg/kg/injection, schedule: Q01DX009 (ip), vehicle: Klucel (hydroxypropylcellulose) (HPC)) is reported as 93 % of control. For the same compound, the T/C (dose: 200.0 mg/kg/injection, schedule: Q04DX003 (ip), vehicle: Klucel (hydroxypropylcellulose) (HPC)) was 91 % of control, the T/C (dose: 400.0 mg/kg/injection, schedule: Q01DX009 (ip), vehicle: Klucel (hydroxypropylcellulose) (HPC)) was 102 % of control and the T/C (dose: 400.0 mg/kg/injection, schedule: Q04DX003 (ip), vehicle: Klucel (hydroxypropylcellulose) (HPC)) was 93 % of control.
For `CC(c1ccccc1)n1cnc2c(=O)[nH]cnc21` (stereo unspecified), the T/C (dose: 50.0 mg/kg/injection, schedule: Q01DX001 (ip), vehicle: carboxymethylcellulose (CMC)) was 106 % of control, the T/C (dose: 100.0 mg/kg/injection, schedule: Q01DX001 (ip), vehicle: carboxymethylcellulose (CMC)) was 101 % of control and the T/C (dose: 200.0 mg/kg/injection, schedule: Q01DX001 (ip), vehicle: carboxymethylcellulose (CMC)) was 101 % of control. For the same compound, the T/C (dose: 400.0 mg/kg/injection, schedule: Q01DX001 (ip), vehicle: carboxymethylcellulose (CMC)) was 95 % of control.
With `NC(Cc1cnc(N=Nc2ccc(N=Nc3ncc(CC(N)C(=O)O)[nH]3)cc2)[nH]1)C(=O)O` (stereo unspecified) the T/C (dose: 50.0 mg/kg/injection, schedule: Q01DX009 (ip), vehicle: Klucel (hydroxypropylcellulose) (HPC)) was 89 % of control and the T/C [1] was 89 % of control.
